From US9416103B2, “Use of the aminoalkylindole JWH-073-M4 and related compounds as neutral CB1 receptor antagonists for the treatment of alcoholism, drug abuse, obesity, and obesity-related diseases” (The Board of Trustees of the University of Arkansas, priority 2012, dated 2016)
Like-named read-outs stand apart in the source and are kept apart here.

Key:
NIH Swiss mice = assay: Core body temperature by biotelemetry (cannabinoid tetrad, hypothermia); assay type: in vivo, mouse
Method: Prior to surgery (see below), male NIH Swiss mice (Harlan Sprague Dawley Inc., Indianapolis, Ind.), weighing approximately 25-30 g, were housed 3 animals per Plexiglas® cage (15.24×25.40×12.70 cm) in a temperature-controlled room in an Association for Assessment and Accreditation of Laboratory Animal Care (AAALAC) accredited animal facility at the University of Arkansas for Medical Sciences. Room conditions were maintained at 22±2° C. and 45-50% humidity. Lights were set to a 12-h light/dark cycle. Animals were fed Lab Diet rodent chow (Laboratory Rodent Diet #5001, PMI Feeds, Inc., St. Louis, Mo.) and water ad libitum throughout testing Animals were acclimated to the laboratory environment for ˜7 days prior to experiments, and to the biotelemetry chambers for at least 2 hours prior to initiation of data acquisition. All test conditions used groups of 5 or 6 mice, and all mice were drug-naïve (with the exception of surgical anesthetics) prior to testing.
Cannabinoid effects on core temperature and locomotor activity were measured using surgically-implanted biotelemetry probes. Following appropriate anesthetization with ketamine (100 mg/kg, intraperitoneal [i.p.]) and xylazine (10 mg/kg, i.p.), the abdominal area of each mouse was shaved and sanitized with iodine swabs. A rostral-caudal cut approximately 1.5 cm in length was made with skin scissors, providing access to the intraperitoneal cavity. A cylindrical glass-encapsulated radiotelemetry probe (model ER-4000 E-Mitter, Mini Mitter Co., Inc., Bend, Oreg.) was then inserted, and the incision was closed using absorbable 5-0 chromic gut suture material. At least 7 days were imposed between surgery and experimental observation of cannabinoid effects to allow incisions to heal and mice to recover normal body weights. Following surgery, implanted mice were individually housed in Plexiglas® mouse cages (15.24×25.40×12.70 cm) for the duration of all temperature and locomotor activity experiments Implanted transmitters produced activity- and temperature-modulated signals that were transmitted to a receiver (model ER-4000 Receiver, Mini Mitter Co., Inc., Bend, Oreg.) underneath each mouse cage. Receivers were housed in light- and sound-attenuating cubicles (Med Associates model ENV-022MD, St. Albans, Vt.) equipped with exhaust fans, which further masked ambient laboratory noise. On experimental days, mice were weighed, marked, and returned to their individual cages during which at least 1 hr of baseline data were collected. […]. Mice were then placed into a new cage with fresh bedding to stimulate exploratory behavior. Temperature and locomotor activity data were collected at regular 5-min intervals and processed simultaneously by the Vital View data acquisition system (Mini Mitter Co., Inc., Bend, Oreg.) for at least 10 hrs.
For core body temperature experiments, the area under the curve (AUC) was calculated using a trapezoidal rule from 0-500 minutes, and statistical significance (P<0.05) was determined using a one-way ANOVA, followed by Tukey's HSD post-hoc test. For locomotor activity, total locomotor counts were summed from 0-800 minutes. Because locomotor, analgesia and catalepsy data were not normally distributed, Kruskal-Wallis one-way ANOVA on ranks were performed, and all pair-wise comparisons were then made using the Tukey's HSD tests. In vivo statistical calculations were performed using SigmaStat 3 (Systat Software, Inc., San Jose, Calif.).

CB1Rs = CB1Rs (Mus musculus (Mouse), UniProt P47746); assay: Competition receptor binding with [3H]CP-55,940 in mouse brain homogenates
Method: Mouse brain homogenates for in vitro assays were prepared as previously described. Briefly, whole brains were harvested from B6SJL mice, snap-frozen in liquid nitrogen and stored at −80° C. On the day membrane homogenates were to be prepared, brains were thawed on ice, then pooled in a 40 mL Dounce glass homogenizer and suspended in 5 volumes of ice cold homogenization buffer (50 mM HEPES, pH 7.4, 3 mM MgCl2, and 1 mM EGTA). Brains were then subjected to 10 complete strokes with an A pestle, followed by centrifugation at 40,000×g for 10 minutes at +4° C. Resulting supernatants were discarded, and the pellet was resuspended, homogenized and centrifuged similarly twice more, with supernatants being discarded. For the final resuspension and homogenization with a B pestle, ice-cold 50 mM HEPES was used in place of homogenization buffer, and homogenates were aliquoted and stored at −80° C. Protein concentrations of homogenates were determined using the BCA™ Protein Assay (Thermo Scientific, Rockford, Ill.).
Competition receptor binding was performed as previously described. […] Reactions were terminated by rapid vacuum filtration through Whatman GF/B glass fiber filters, followed by five washes with ice-cold buffer (50 mM Tris, 0.05% BSA). Filters were immediately placed into 7 mL scintillation vials to which 4 mL of ScintiVerse™ BD Cocktail scintillation fluid (Fisher Scientific, Fair Lawn, N.J.) was added. Bound radioactivity was determined after overnight incubation at room temperature and shaking, by liquid scintillation spectrophotometry with an efficiency of 44% (Tri Carb 2100 TR Liquid Scintillation Analyzer, Packard Instrument Company, Meriden, Conn.). Specific binding is expressed as total binding minus non-specific binding, and is graphed for each data point as a percentage of specific binding occurring in the absence of any competitor.
Curve fitting and statistical analyses for in vitro experiments were performed using GraphPad Prism™ version 5.0b (GraphPad Software Inc., San Diego, Calif.). The Cheng-Prusoff equation [45] was used to convert the experimental IC50 values obtained from competition receptor binding experiments to Ki values, a quantitative measure of receptor affinity. Non-linear regression for one-site competition was used to determine the IC50 for competition receptor binding. Curve fitting of concentration-effect curves via non-linear regression was also employed to determine the EC50 (a measure of potency) and Emax (a measure of efficacy) for [^35S]GTPγS concentration-effects experiments. […] Data are expressed as mean±SEM. The Student's t-test was used to determine statistical significance (P<0.05) between two groups, while a one-way ANOVA, followed by Tukey's Multiple Comparison post-hoc test, was used to determine statistical significance (P<0.05) between three or more groups.
The prepared analogues were subjected to in vitro pharmacological testing, which included receptor binding and functional assays at both cannabinoid receptors. Initial receptor binding screens at both CB1Rs and CB2Rs were conducted for the analogues prepared.

[1] = mouse brain homogenates, 0.2 nM [3H]CP-55,940, read-out: [3H]CP binding Ki

| Structure (SMILES) | JWH-018-induced hypothermia blunted by co-administration, core body temperature (NIH Swiss mice; M4 10 mg/kg i.p. co-administered with JWH-018 3 mg/kg i.p.) | change in body temperature, given alone (NIH Swiss mice; M4 10 mg/kg, i.p., alone) | Ki (CB1Rs; Table 3, read-out: mCB1R Ki) | Ki (CB1Rs; mouse brain homogenates, 0.2 nM [3H]CP-55,940, listed as JWH-073-M4, read-out: [3H]CP binding Ki) | Ki (CB1Rs; [1]) | minimum core body temperature recorded (NIH Swiss mice; 10 mg/kg, i.p.) | time to maximal core body temperature reduction (NIH Swiss mice; 10 mg/kg, i.p.) |
| --- | --- | --- | --- | --- | --- | --- | --- |
| CCCCn1cc(C(=O)c2cccc3ccccc23)c2cccc(O)c21 [Compound M4] | 33.09+/−0.70 °C | no significant change in body temperature | 0.0242 ± 0.0172 µM | ~0.12 µM | 0.122 µM |  |  |
| CCCCn1cc(C(=O)c2cccc3ccccc23)c2ccccc21 [JWH-073, (1-butyl-1H-indole-3-yl)-1-naphthalenyl-methanone] |  |  | 0.0129 ± 0.0034 µM |  | 0.0129 ± 0.0034 µM | 29.74±1.44 °C | 54.17 ± 5.23 min |
